Legend:
windgrass [1] = assay: Test D postemergence; assay type: in vivo, Apera spica-venti; settings: scale 0 to 100
Description: (§1) Seeds of plant species selected from bluegrass (annual bluegrass, Poa annua), blackgrass (Alopecurus myosuroides), canarygrass (Phalaris minor), chickweed (common chickweed, Stellaria media), galium (catchweed bedstraw, Galium aparine), bromegrass, down (downy bromegrass, Bromus tectorum), Russian thistle (Salsola kali), field poppy (Papaver rhoeas), field violet (Viola arvensis), foxtail, green (green foxtail, Setaria viridis), deadnettle (henbit deadnettle, Lamium amplexicaule), ryegrass, Ital. (Italian ryegrass, Lolium multiflorum), kochia (Kochia scoparia), lambsquarters (Chenopodium album), oilseed rape (Brassica napus), pigweed (Amaranthus retroflexus), chamomile (scentless chamomile, Matricaria inodora), speedwell (bird's-eye speedwell, Veronica persica), barley, spring (spring barley, Hordeum vulgare), wheat, spring (spring wheat, Triticum aestivum), buckwheat, wild (wild buckwheat, Polygonum convolvulus), wild mustard (Sinapis arvensis), oat, wild (wild oat, Avena fatua), radish, wild (wild radish, Raphanus raphanistrum), […]), barley, winter (winter barley, Hordeum vulgare), and wheat, winter (winter wheat, Triticum aestivum) were planted into a silt loam soil and treated preemergence with test chemicals formulated in a non-phytotoxic solvent mixture which included a surfactant. At the same time, these species were planted in pots containing Sunshine Redi-Earth® planting medium comprising spaghnum peat moss, vermiculite, starter nutrients and dolomitic limestone and treated with postemergence applications of the test chemicals formulated in the same manner. Plants ranged in height from 2 to 18 cm (1- to 4-leaf stage). Treated plants and controls were maintained in a controlled growth environment for 14 to 21 d after which time all species were compared to controls and visually evaluated. […] A dash (-) response means no test result.

ryegrass, Ital. = assay: Test D postemergence; assay type: in vivo, Lolium multiflorum; settings: scale 0 to 100
Description: as §1

buckwheat, wild = assay: Test D preemergence; assay type: in vivo, Polygonum convolvulus; settings: for Plant response rating (0 to 100), Buckwheat, Wild: 16 g ai/ha, 0 is no effect, 100 is complete control; for Plant response rating: Buckwheat, Wild: scale 0 to 100
Description: as §1

soybean = assay: Test C preemergence; assay type: in vivo, Glycine max; settings: for Soybean plant response rating (0 to 100): Preemergence, visual rating after 13 to 15 d
Description: (§2) Seeds of plant species selected from blackgrass (Alopecurus myosuroides), ryegrass, Italian (Italian ryegrass, Lolium multiflorum), wheat (winter wheat, Triticum aestivum), galium (catchweed bedstraw, Galium aparine), corn (Zea mays), crabgrass, large (large crabgrass, Digitaria sanguinalis), foxtail, giant, (giant foxtail, Setaria faberii), johnsongrass (Sorghum halepense), lambsquarters (Chenopodium album), morningglory (Ipomoea coccinea), nutsedge, yellow (yellow nutsedge, Cyperus esculentus), pigweed (Amaranthus retroflexus), ragweed (common ragweed, Ambrosia elatior), soybean (Glycine max), barnyardgrass (Echinochloa crus-galli), oilseed rape (Brassica napus), waterhemp (common waterhemp, Amaranthus rudis), and velvetleaf (Abutilon theophrasti) were planted into a blend of loam soil and sand and treated preemergence with test chemicals formulated in a non-phytotoxic solvent mixture which included a surfactant. At the same time, plants selected from these crop and weed species and also chickweed (common chickweed, Stellaria media), oat, wild (wild oat, Avena fatua), and kochia (Kochia scoparia), were planted in pots containing Sunshine Redi-Earth® planting medium comprising spaghnum peat moss, vermiculite, starter nutrients and dolomitic limestone and treated with postemergence applications of test chemicals formulated in the same manner. Plants ranged in height from 2 to 18 cm (1- to 4-leaf stage) for postemergence treatments. […] A dash (-) response means no test result.

waterhemp = assay: Test C preemergence; assay type: in vivo, Amaranthus rudis; settings: for Waterhemp plant response rating (0 to 100): Preemergence, visual rating after 13 to 15 d
Description: as §2

deadnettle = assay: Test D preemergence; assay type: in vivo, Lamium amplexicaule; settings: for Plant response rating (0 to 100), Deadnettle: 16 g ai/ha, 0 is no effect, 100 is complete control; for Plant response rating: Deadnettle: scale 0 to 100
Description: as §1

field violet = assay: Test D postemergence; assay type: in vivo, Viola arvensis; settings: scale 0 to 100
Description: as §1

Russian thistle = assay: Test D postemergence; assay type: in vivo, Salsola kali; settings: scale 0 to 100
Description: as §1

kochia = assay: Test A preemergence; assay type: in vivo, Kochia scoparia; settings: 0 to 100 scale (0 no effect, 100 complete control)
In short: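 Visual 0–100 ratings (0 no effect, 100 complete control) made roughly 10 days after treatment, comparing greenhouse-grown plants to untreated controls. Formulated test chemicals, with surfactant, went either as directed soil spray at planting or onto 2–10 cm seedlings bearing one to two leaves.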

ryegrass, Italian = assay: Test C preemergence; assay type: in vivo, Lolium multiflorum; settings: for Ryegrass, Italian plant response rating (0 to 100): Preemergence, visual rating after 13 to 15 d; for Plant response rating (scale of 0 to 100 where 0 is no effect and 100 is complete control): Ryegrass, Italian, preemergence
Description: as §2

corn = assay: Test C preemergence; assay type: in vivo, Zea mays; settings: for Plant response rating (scale of 0 to 100 where 0 is no effect and 100 is complete control): Corn, preemergence; for Corn plant response rating (0 to 100): Preemergence, visual rating after 13 to 15 d
Description: as §2

windgrass [2] = assay: Test D preemergence; assay type: in vivo, Apera spica-venti; settings: for Plant response rating (0 to 100), Windgrass: 16 g ai/ha, 0 is no effect, 100 is complete control; for Plant response rating: Windgrass: scale 0 to 100
Description: as §1

wild mustard = assay: Test D postemergence; assay type: in vivo, Sinapis arvensis; settings: scale 0 to 100
Description: as §1

With `FC(F)(F)COc1nc(-c2ccccc2)nn1Cc1ccnc(C(F)(F)F)c1` [Compound 24] the “Plant response rating: Windgrass” value (windgrass [1]; 16 g ai/ha) was 20, the “Plant response rating: Windgrass” value (windgrass [1]; 31 g ai/ha) was 35 and the “Plant response rating: Windgrass” value (windgrass [1]; 62 g ai/ha) was 45. The “Plant response rating: Windgrass” value (windgrass [1]; 125 g ai/ha) was 60, the “Plant response rating: Ryegrass, Ital.” value (ryegrass, Ital.; 16 g ai/ha) was 15 and the “Plant response rating: Ryegrass, Ital.” value (ryegrass, Ital.; 31 g ai/ha) was 25. The “Plant response rating: Ryegrass, Ital.” value (ryegrass, Ital.; 62 g ai/ha) was 30, the “Plant response rating: Ryegrass, Ital.” value (ryegrass, Ital.; 125 g ai/ha) was 40 and the “Plant response rating (0 to 100), Buckwheat, Wild” value (buckwheat, wild) was 50. The “Plant response rating: Buckwheat, Wild” value (buckwheat, wild; 31 g ai/ha) was 55, the “Plant response rating: Buckwheat, Wild” value (buckwheat, wild; 62 g ai/ha) was 60 and the “Plant response rating: Buckwheat, Wild” value (buckwheat, wild; 125 g ai/ha) was 70. For the same compound, the “Soybean plant response rating (0 to 100)” value (soybean; 31 g ai/ha) was 0, the “Soybean plant response rating (0 to 100)” value (soybean; 62 g ai/ha) was 5 and the “Plant response rating (scale of 0 to 100 where 0 is no effect and 100 is complete control)” value (soybean; Soybean, preemergence, 250 g ai/ha) was 35. For the same compound, the “Waterhemp plant response rating (0 to 100)” value (waterhemp; 31 g ai/ha) was 100, the “Waterhemp plant response rating (0 to 100)” value (waterhemp; 62 g ai/ha) was 100 and the “Plant response rating (scale of 0 to 100 where 0 is no effect and 100 is complete control)” value (waterhemp; Waterhemp, preemergence, 250 g ai/ha) was 100. The “Plant response rating (0 to 100), Deadnettle” value (deadnettle) was 30, the “Plant response rating: Deadnettle” value (deadnettle; 31 g ai/ha) was 80 and the “Plant response rating: Deadnettle” value (deadnettle; 62 g ai/ha) was 85. For the same compound, the “Plant response rating: Deadnettle” value (deadnettle; 125 g ai/ha) was 100, the “Plant response rating: Field Violet” value (field violet; 16 g ai/ha) was 70 and the “Plant response rating: Field Violet” value (field violet; 31 g ai/ha) was 75. The “Plant response rating: Field Violet” value (field violet; 62 g ai/ha) was 80, the “Plant response rating: Field Violet” value (field violet; 125 g ai/ha) was 90 and the “Plant response rating: Russian Thistle” value (Russian thistle; 16 g ai/ha) was 65. The “Plant response rating: Russian Thistle” value (Russian thistle; 31 g ai/ha) was 75, the “Plant response rating: Russian Thistle” value (Russian thistle; 62 g ai/ha) was 85 and the “Plant response rating: Russian Thistle” value (Russian thistle; 125 g ai/ha) was 85. For the same compound, the “Plant response rating, Kochia” value (kochia; 125 g ai/ha) was 80, the “Plant response rating, Kochia” value (kochia; 500 g ai/ha, approx. 10 d) was 90 and the “Ryegrass, Italian plant response rating (0 to 100)” value (ryegrass, Italian; 31 g ai/ha) was 5. For the same compound, the “Ryegrass, Italian plant response rating (0 to 100)” value (ryegrass, Italian; 62 g ai/ha) was 15, the “Plant response rating (scale of 0 to 100 where 0 is no effect and 100 is complete control)” value (ryegrass, Italian; 125 g ai/ha) was 85 and the “Plant response rating (scale of 0 to 100 where 0 is no effect and 100 is complete control)” value (ryegrass, Italian; 250 g ai/ha) was 90. For the same compound, the “Plant response rating (scale of 0 to 100 where 0 is no effect and 100 is complete control)” value (corn; 125 g ai/ha) was 25, the “Plant response rating (scale of 0 to 100 where 0 is no effect and 100 is complete control)” value (corn; 250 g ai/ha) was 40 and the “Corn plant response rating (0 to 100)” value (corn; 31 g ai/ha) was 0. The “Corn plant response rating (0 to 100)” value (corn; 62 g ai/ha) was 10, the “Plant response rating (0 to 100), Windgrass” value (windgrass [2]) was 0 and the “Plant response rating: Windgrass” value (windgrass [2]; 62 g ai/ha) was 65. For the same compound, the “Plant response rating: Windgrass” value (windgrass [2]; 125 g ai/ha) was 100, the “Plant response rating: Mustard, Wild” value (wild mustard; 16 g ai/ha) was 65 and the “Plant response rating: Mustard, Wild” value (wild mustard; 31 g ai/ha) was 70. For the same compound, the “Plant response rating: Mustard, Wild” value (wild mustard; 62 g ai/ha) was 100 and the “Plant response rating: Mustard, Wild” value (wild mustard; 125 g ai/ha) was 100.
With `COc1nc(-c2ccc(Cl)cc2)nn1Cc1ccnc(C(F)(F)F)c1` [Compound 28] the “Plant response rating: Windgrass” value (windgrass [1]; 16 g ai/ha) was 25, the “Plant response rating: Windgrass” value (windgrass [1]; 31 g ai/ha) was 25 and the “Plant response rating: Windgrass” value (windgrass [1]; 62 g ai/ha) was 45. The “Plant response rating: Windgrass” value (windgrass [1]; 125 g ai/ha) was 45, the “Plant response rating: Ryegrass, Ital.” value (ryegrass, Ital.; 16 g ai/ha) was 20 and the “Plant response rating: Ryegrass, Ital.” value (ryegrass, Ital.; 31 g ai/ha) was 20. The “Plant response rating: Ryegrass, Ital.” value (ryegrass, Ital.; 62 g ai/ha) was 30, the “Plant response rating: Ryegrass, Ital.” value (ryegrass, Ital.; 125 g ai/ha) was 45 and the “Plant response rating (0 to 100), Buckwheat, Wild” value (buckwheat, wild) was 60. The “Plant response rating: Buckwheat, Wild” value (buckwheat, wild; 31 g ai/ha) was 65, the “Plant response rating: Buckwheat, Wild” value (buckwheat, wild; 62 g ai/ha) was 75 and the “Plant response rating: Buckwheat, Wild” value (buckwheat, wild; 125 g ai/ha) was 95. The “Plant response rating (0 to 100), Deadnettle” value (deadnettle) was 20, the “Plant response rating: Deadnettle” value (deadnettle; 31 g ai/ha) was 75 and the “Plant response rating: Deadnettle” value (deadnettle; 62 g ai/ha) was 95. For the same compound, the “Plant response rating: Deadnettle” value (deadnettle; 125 g ai/ha) was 100, the “Plant response rating: Field Violet” value (field violet; 16 g ai/ha) was 75 and the “Plant response rating: Field Violet” value (field violet; 31 g ai/ha) was 80. The “Plant response rating: Field Violet” value (field violet; 62 g ai/ha) was 100, the “Plant response rating: Field Violet” value (field violet; 125 g ai/ha) was 100 and the “Plant response rating: Russian Thistle” value (Russian thistle; 16 g ai/ha) was 70. The “Plant response rating: Russian Thistle” value (Russian thistle; 31 g ai/ha) was 75, the “Plant response rating: Russian Thistle” value (Russian thistle; 62 g ai/ha) was 85 and the “Plant response rating: Russian Thistle” value (Russian thistle; 125 g ai/ha) was 85. For the same compound, the “Plant response rating, Kochia” value (kochia; 125 g ai/ha) was 70, the “Plant response rating, Kochia” value (kochia; 500 g ai/ha, approx. 10 d) was 90 and the “Plant response rating (0 to 100), Windgrass” value (windgrass [2]) was 25. For the same compound, the “Plant response rating: Windgrass” value (windgrass [2]; 62 g ai/ha) was 50, the “Plant response rating: Windgrass” value (windgrass [2]; 125 g ai/ha) was 80 and the “Plant response rating: Mustard, Wild” value (wild mustard; 16 g ai/ha) was 90. The “Plant response rating: Mustard, Wild” value (wild mustard; 31 g ai/ha) was 100, the “Plant response rating: Mustard, Wild” value (wild mustard; 62 g ai/ha) was 100 and the “Plant response rating: Mustard, Wild” value (wild mustard; 125 g ai/ha) was 100.
